Measurements as given in US8163724B2, “Glucocorticosteroids, processes for their preparation, pharmaceutical compositions containing them and their use in therapy” (AstraZeneca AB, priority 2007, dated 2012).

Target: T1, recombinant human GR (Homo sapiens, UniProt P04150)
T1 construct: purchased Panvera/Invitrogen P2812 (kit P2893)
T1 sequence (P04150 1-777): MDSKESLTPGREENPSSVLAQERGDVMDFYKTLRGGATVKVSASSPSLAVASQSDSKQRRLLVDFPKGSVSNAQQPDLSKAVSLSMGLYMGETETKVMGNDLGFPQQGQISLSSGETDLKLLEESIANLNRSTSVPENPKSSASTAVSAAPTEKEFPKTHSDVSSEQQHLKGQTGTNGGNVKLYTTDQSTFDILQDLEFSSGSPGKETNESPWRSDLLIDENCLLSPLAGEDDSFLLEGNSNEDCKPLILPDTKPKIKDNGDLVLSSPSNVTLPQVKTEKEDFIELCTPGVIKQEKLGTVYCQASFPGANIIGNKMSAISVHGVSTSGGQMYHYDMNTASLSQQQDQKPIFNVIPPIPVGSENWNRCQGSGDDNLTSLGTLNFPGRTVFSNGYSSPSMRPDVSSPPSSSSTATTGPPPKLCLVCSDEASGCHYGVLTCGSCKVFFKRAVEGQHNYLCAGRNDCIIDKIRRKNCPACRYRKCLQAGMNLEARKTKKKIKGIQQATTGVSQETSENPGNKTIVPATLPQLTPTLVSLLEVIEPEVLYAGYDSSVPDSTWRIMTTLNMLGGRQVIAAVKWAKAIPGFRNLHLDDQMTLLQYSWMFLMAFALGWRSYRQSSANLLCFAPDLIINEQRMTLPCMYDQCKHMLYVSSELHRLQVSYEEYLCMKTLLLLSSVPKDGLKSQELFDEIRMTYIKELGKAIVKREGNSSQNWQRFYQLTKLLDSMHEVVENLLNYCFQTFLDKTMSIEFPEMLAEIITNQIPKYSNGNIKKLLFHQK
Assay: Human Glucocorticoid Receptor (GR) Assay (fluorescence polarization, Panvera/Invitrogen kit)
Format: binding
Settings: fluorescence polarization; GS Red tracer; 2 hours at room temperature; 100% control 10 μM Dexamethasone; read-out: Inhibition of GR binding, IC50
Summary of the method: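 Fluorescence polarization competition with recombinant GR and GS Red fluorescent ligand plus stabilizing peptide and DTT in potassium phosphate/sodium molybdate/EDTA buffer with DMSO. Incubated 2 hours at room temperature in the dark; 0% control DMSO, 100% control 10 μM dexamethasone.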

Row | SMILES | IC50
1 | C[C@]12Cc3cnn(-c4ccc(F)cc4)c3C=C1CC[C@@H]1[C@@H]2[C@@H](O)C[C@@]2(C)[C@H]1CC[C@]2(OC(=O)C1CCOCC1)C(=O)SCC#N [Example 126, (1R,3aS,3bS,10aR,10bS,11S,12aS)-1-{[(Cyanomethyl)sulfanyl]carbonyl}-7-(4-fluorophenyl)-11-hydroxy-10a,12a-dimethyl-1,2,3,3a,3b,4,5,7,10,10a,10b,11,12,12a-tetradecahydrocyclopenta[5,6]naphtho[1,2-f]indazol-1-yl tetrahydro-2H-pyran-4-carboxylate] | 2.7 nM
2 | C[C@]12Cc3cnn(-c4ccc(F)cc4)c3C=C1CC[C@@H]1[C@@H]2[C@@H](O)C[C@@]2(C)[C@H]1CC[C@]2(OC(=O)C1CCOCC1)C(=O)SCCO [Example 127, (1R,3aS,3bS,10aR,10bS,11S,12aS)-7-(4-Fluorophenyl)-11-hydroxy-1-{[(2-hydroxyethyl)sulfanyl]carbonyl}-10a,12a-dimethyl-1,2,3,3a,3b,4,5,7,10,10a,10b,11,12,12a-tetradecahydrocyclopenta[5,6]naphtho[1,2-f]indazol-1-yl tetrahydro-2H-pyran-4-carboxylate] | 3.7 nM
3 | CC(=O)O[C@]1(C(=O)CSC#N)CC[C@H]2[C@@H]3CCC4=Cc5c(cnn5-c5ccc(F)cc5)C[C@]4(C)[C@H]3[C@@H](O)C[C@@]21C [Example 130, (1R,3aS,3bS,10aR,10bS,11S,12aS)-7-(4-Fluorophenyl)-11-hydroxy-10a,12a-dimethyl-1-(thiocyanatoacetyl)-1,2,3,3a,3b,4,5,7,10,10a,10b,11,12,12a-tetradecahydrocyclopenta[5,6]naphtho[1,2-f]indazol-1-yl acetate] | 5.9 nM
4 | CCSCC(=O)[C@@]1(OC(C)=O)CC[C@H]2[C@@H]3CCC4=Cc5c(cnn5-c5ccc(F)cc5)C[C@]4(C)[C@H]3[C@@H](O)C[C@@]21C [Example 131, (1R,3aS,3bS,10aR,10bS,11S,12aS)-1-[(Ethylsulfanyl)acetyl]-7-(4-fluorophenyl)-11-hydroxy-10a,12a-dimethyl-1,2,3,3a,3b,4,5,7,10,10a,10b,11,12,12a-tetradecahydrocyclopenta[5,6]naphtho[1,2-f]indazol-1-yl acetate] | 4.1 nM
5 | CSSCC(=O)[C@@]1(OC(C)=O)CC[C@H]2[C@@H]3CCC4=Cc5c(cnn5-c5ccc(F)cc5)C[C@]4(C)[C@H]3[C@@H](O)C[C@@]21C [Example 134, (1R,3aS,3bS,10aR,10bS,11S,12aS)-7-(4-Fluorophenyl)-11-hydroxy-10a,12a-dimethyl-1-[(methyldisulfanyl)acetyl]-1,2,3,3a,3b,4,5,7,10,10a,10b,11,12,12a-tetradecahydrocyclopenta[5,6]naphtho[1,2-f]indazol-1-yl acetate] | 2.9 nM
6 | COC1(C(=O)O[C@]2(C(=O)SCC#N)CC[C@H]3[C@@H]4CCC5=Cc6c(cnn6-c6ccc(F)cc6)C[C@]5(C)[C@H]4[C@@H](O)C[C@@]32C)CC1 [Example 135, (1R,3aS,3bS,10aR,10bS,11S,12aS)-1-{[(Cyanomethyl)sulfanyl]carbonyl}-7-(4-fluorophenyl)-11-hydroxy-10a,12a-dimethyl-1,2,3,3a,3b,4,5,7,10,10a,10b,11,12,12a-tetradecahydrocyclopenta[5,6]naphtho[1,2-f]indazol-1-yl 1-methoxycyclopropanecarboxylate] | 7.6 nM
7 | C[C@]12Cc3cnn(-c4ccc(F)cc4)c3C=C1CC[C@@H]1[C@@H]2[C@@H](O)C[C@@]2(C)[C@H]1CC[C@]2(OC(=O)C1CCCO1)C(=O)SCF (stereo partly drawn) [Example 137, (1R,3aS,3bS,10aR,10bS,11S,12aS)-1-{[(Fluoromethyl)sulfanyl]carbonyl}-7-(4-fluorophenyl)-11-hydroxy-10a,12a-dimethyl-1,2,3,3a,3b,4,5,7,10a,10b,11,12,12a-tetradecahydrocyclopenta[5,6]naphtho[1,2-f]indazol-1-yl (2R)-tetrahydrofuran-2-carboxylate] | 2.8 nM
8 | C[C@]12Cc3cnn(-c4ccc(F)c(CO)c4)c3C=C1CC[C@@H]1[C@@H]2[C@@H](O)C[C@@]2(C)[C@H]1CC[C@]2(OC(=O)C1CC1)C(=O)SCF [Example 139, (1R,3aS,3bS,10aR,10bS,11S,12aS)-7-[4-Fluoro-3-(hydroxymethyl)phenyl]-1-{[(fluoromethyl)thio]carbonyl}-11-hydroxy-10a,12a-dimethyl-1,2,3,3a,3b, 4,5,7,10,10a,10b,11,12,12a-tetradecahydrocyclopenta[5,6]naphtho[1,2-f]indazol-1-yl cyclopropanecarboxylate] | 3.5 nM
9 | COCC(=O)O[C@]1(C(=O)SCC#N)CC[C@H]2[C@@H]3CCC4=Cc5c(cnn5-c5ccc(F)c(CO)c5)C[C@]4(C)[C@H]3[C@@H](O)C[C@@]21C [Example 140, (1R,3aS,3bS,10R,10bS,11S,12aS)-1-{[(Cyanomethyl)thio]carbonyl}-7-[4-fluoro-3-(hydroxymethyl)phenyl]-11a,12a-dimethyl-1,2,3,3a,3b,4,5,7,10,10a,10b,11,12,12a-tetradecahydrocyclopenta[5,6]naphtho[1,2-f]indazol-1-yl Methoxyacetate] | 2.3 nM
10 | C[C@@H]1C[C@H]2[C@@H]3CCC4=Cc5c(cnn5-c5ccc(F)cc5)C[C@]4(C)[C@H]3[C@@H](O)C[C@]2(C)[C@@]1(OC(=O)c1ccco1)C(=O)SCC#N [Example 141, (1R,2R,3aS,3bS,10aR,10bS,11S,12aS)-1-{[(Cyanomethyl)thio]carbonyl}-7-(4-fluorophenyl)-11-hydroxy-2,10a,12a-trimethyl-1,2,3,3a,3b,4,5,7,10,10a,10b,11,12,12a-tetradecahydrocyclopenta[5,6]naphtho[1,2-f]indazol-1-yl furan-2-carboxylate] | 13 nM
11 | Cc1cc(-n2ncc3c2C=C2CC[C@@H]4[C@H]([C@@H](O)C[C@@]5(C)[C@H]4CC[C@]5(OC(=O)C4CC4)C(=O)OCC#N)[C@@]2(C)C3)ccn1 [Example 142, Cyanomethyl(1R,3aS,3bS,10aR,10bS,11S,12aS)-1-[(cyclopropylcarbonyl)oxy]-11-hydroxy-10a,12a-dimethyl-7-(2-methylpyridin-4-yl)-1,2,3,3a,3b,4,5,7,10,10a,10b,11,12,12a-tetradecahydrocyclopenta[5,6]naphtho[1,2-]indazole-1-carboxylate] | 1.6 nM
12 | C[C@]12Cc3cnn(-c4ccccn4)c3C=C1CC[C@@H]1[C@@H]2[C@@H](O)C[C@@]2(C)[C@H]1CC[C@]2(OC(=O)C1CC1)C(=O)OCC#N [Example 143, Cyanomethyl(1R,3aS,3bS,10aR,10bS,11S,12aS)-1-[(cyclopropylcarbonyl)oxy]-11-hydroxy-10a,12a-dimethyl-7-pyridin-2-yl-1,2,3,3a,3b,4,5,7,10,11a,10b,11,12,12a-tetradecahydrocyclopenta[5,6]naphtho[1,2-f]indazole-1-carboxylate] | 1.5 nM
13 | C[C@]12Cc3cnn(-c4ccc(F)c(CO)c4)c3C=C1CC[C@@H]1[C@@H]2[C@@H](O)C[C@@]2(C)[C@H]1CC[C@]2(OC(=O)C1CC1)C(=O)SCC#N [Example 144, (1R,3aS,3bS,10aR,10bS,11S,12aS)-1-{[(Cyanomethyl)sulfanyl]carbonyl}-7-[4-fluoro-3-(hydroxymethyl)phenyl-]-11-hydroxy-10a,12a-dimethyl-1,2,3,3a,3b, 4,5,7,10,10a,11,12,12a-tetradecahydrocyclopenta[5,6]naphtho[1,2-f]indazol-1-yl Cyclopropanecarboxylate] | 3.8 nM
